The values that follow are results of earlier work, collected in article PMC6311893, “Computational prediction of plasma protein binding of cyclic peptides from small molecule experimental data using sparse modeling techniques” (BMC Bioinformatics, 2018).

Structures are written as SMILES. Like-named read-outs stand apart in the source and are kept apart here.

This data set relates to plasma protein. The note with it: cited from earlier work.
Where [1] appears, read: fraction bound to plasma protein, small molecule dataset, sheet 1-SM, ref Ingle et al.
[2] abbreviates: fraction bound to plasma protein, small molecule dataset, sheet 1-SM (Set Dte = test, Dtr = training), ref Ingle et al.
The mark [3] stands for this setting: fraction bound to plasma protein, small molecule dataset, sheet 1-SM, Set Dtr, ref Ingle et al.

As for `Cc1noc(NS(=O)(=O)c2ccc(N)cc2)c1C` [Sulfisoxazole], the “PPB (fb)” value under setting [1] is recorded as 0.92.

In the case of `O=P(O)(O)C(Sc1ccc(Cl)cc1)P(=O)(O)O` [tiludronic acid], under setting [1], the “PPB (fb)” value is on record as 0.9.

In the case of `CCOC(=O)[C@H](CCc1ccccc1)N[C@H]1CCc2ccccc2N(CC(=O)O)C1=O` [benazepril], under setting [2], the “PPB (fb)” value is listed as 0.96.

As to `Cc1cccc(C)c1NC(=O)C(C)N` (stereo not shown) [Tocainide], the “PPB (fb)” value under setting [1] is reported as 0.13.

Consider `C[C@]12C=CC(=O)C=C1C(Cl)=C[C@@H]1[C@@H]2[C@@H](O)C[C@@]2(C)[C@H]1CC[C@]2(O)C(=O)CO` [cloprednol], for which the “PPB (fb)” value under setting [2] is recorded as 0.8.

With `CC(C)[C@H](N)C(=O)OCCOCn1cnc2c(=O)[nH]c(N)nc21` [valacyclovir], the “PPB (fb)” value under setting [3] is 0.18.

Regarding `N[C@@H](Cc1ccc(O)c(O)c1)C(=O)O` [Levodopa], the “PPB (fb)” value under setting [3] is 0.12.

Regarding `NS(=O)(=O)Cc1noc2ccccc12` [zonisamide], under setting [2], the “PPB (fb)” value is 0.4.

In the case of `CCOC(=O)c1c(CSc2ccccc2)n(C)c2cc(Br)c(O)c(CN(C)C)c12` [arbidol], under setting [2], the “PPB (fb)” value was 0.91.

For the compound `Cn1cnc([N+](=O)[O-])c1Sc1ncnc2nc[nH]c12` [azathioprine], under setting [2], the “PPB (fb)” value is reported as 0.25.

In the case of `CCOc1ccc2ccccc2c1C(=O)N[C@@H]1C(=O)N2[C@@H]1SC(C)(C)[C@@H]2C(=O)O` [Nafcillin], under setting [2], the “PPB (fb)” value is 0.88.

Turning to `CC(C)(O)C(Cl)(Cl)Cl` [chlorobutanol], the “PPB (fb)” value under setting [2] was 0.55.

`CCC1(c2ccccc2)C(=O)NC(=O)N(C)C1=O` (stereo not shown) [methylphenobarbital]: where the note is “plasma”, the “PPB (fb)” value is given as 0.5.

For `CN1CCC[C@H]1c1cccnc1` [Nicotine], the “PPB (fb)” value (plasma) is 0.05.

On to `CC(=O)Nc1ccccc1` [acetanilide], for which the “PPB (fb)” value under setting [2] is given as 0.07.

In the case of `C[C@@H]1CN(c2c(F)c(N)c3c(=O)c(C(=O)O)cn(C4CC4)c3c2F)C[C@H](C)N1` [Sparfloxacin], the “PPB (fb)” value under setting [1] was 0.45.

Take `Fc1ccc(C(c2ccc(F)cc2)N2CCN(C/C=C/c3ccccc3)CC2)cc1` [flunarizine]: the “PPB (fb)” value under setting [1] was 0.95.

With `CC(=O)NC[C@H]1CN(c2ccc(N3CCOCC3)c(F)c2)C(=O)O1` [Linezolid], under setting [3], the “PPB (fb)” value is on record as 0.31.

Take `COc1ccc(Cl)cc1C(=O)NCCc1ccc(S(=O)(=O)NC(=O)NC2CCCCC2)cc1` [Glyburide]: the “PPB (fb)” value under setting [3] is 0.98.

Take `O=C1CCC(N2C(=O)c3ccccc3C2=O)C(=O)N1` (stereo not shown) [Thalidomide]: under setting [1], the “PPB (fb)” value is recorded as 0.57.

For the compound `CC1(C)SC2C(NC(=O)COc3cccc(F)c3)C(=O)N2C1C(=O)O` (stereo not shown) [penicillin53], the “PPB (fb)” value under setting [1] is on record as 0.83.

Consider `COc1ccccc1OCCNCC(O)COc1cccc2[nH]c3ccccc3c12` (stereo not shown) [Carvedilol], for which the “PPB (fb)” value under setting [3] is recorded as 0.96.

In the case of `C=C(c1ccc(C(=O)O)cc1)c1cc2c(cc1C)C(C)(C)CCC2(C)C` [Bexarotene], the “PPB (fb)” value under setting [2] is 0.99.

Consider `CCN(CC)C(=S)SSC(=S)N(CC)CC` [disulfiram], for which the “PPB (fb)” value under setting [2] is on record as 0.5.

On to `CC(C)CN(C[C@@H](O)[C@H](Cc1ccccc1)NC(=O)O[C@H]1CCOC1)S(=O)(=O)c1ccc(N)cc1` [amprenavir], for which the “PPB (fb)” value under setting [2] is 0.9.

For `CO[C@H]1/C=C/O[C@@]2(C)Oc3c(C)c(O)c4c(O)c(c(/C=N/N5CCN(C)CC5)c(O)c4c3C2=O)NC(=O)/C(C)=C\C=C\[C@H](C)[C@H](O)[C@@H](C)[C@@H](O)[C@@H](C)[C@H](OC(C)=O)[C@@H]1C` [Rifampin], the “PPB (fb)” value under setting [1] was 0.77.

As to `CC(C)(Oc1ccc(Cl)cc1)C(=O)O` [clofibric acid], under setting [2], the “PPB (fb)” value is 0.98.

For the compound `Cc1cn[nH]c1` [fomepizole], under setting [1], the “PPB (fb)” value is 0.

Turning to `CCN(CC)CCOC(=O)C(Cc1cccc2ccccc12)CC1CCCO1` (stereo not shown) [nafronyl], under setting [1], the “PPB (fb)” value is listed as 0.9.

`N[C@@H]1CON=C1O` [cycloserine]: the “PPB (fb)” value under setting [2] is recorded as 0.2.

On to `CO[C@]1(CC[C@@H](C)CO[C@@H]2O[C@H](CO)[C@@H](O)[C@H](O)[C@H]2O)O[C@H]2C[C@H]3[C@@H]4CC=C5C[C@@H](O[C@@H]6O[C@H](CO)[C@@H](O[C@@H]7O[C@@H](C)[C@H](O)[C@@H](O)[C@H]7O)[C@H](O)[C@H]6O[C@@H]6O[C@@H](C)[C@H](O)[C@@H](O)[C@H]6O)CC[C@]5(C)[C@H]4CC[C@]3(C)[C@H]2[C@@H]1C` [methyl protodioscin], for which the “PPB (fb)” value under setting [1] is on record as 0.84.

Regarding `CCCNC(=O)NS(=O)(=O)c1ccc(Cl)cc1` [Chlorpropamide], the “PPB (fb)” value under setting [3] was 0.96.

`CN1C2CCCC1CC(NC(=O)c1nn(C)c3ccccc13)C2` (stereo not shown) [Granisetron]: under setting [3], the “PPB (fb)” value was 0.65.

As to `CC1(C)SC2C(NC(=O)COc3ccc(F)cc3)C(=O)N2C1C(=O)O` (stereo not shown) [penicillin54], the “PPB (fb)” value under setting [1] was 0.81.

As for `Cc1ccc(S(=O)(=O)NC(=O)N[C@H]2[C@H]3CC[C@@](C)([C@H]2O)C3(C)C)cc1` [glibornuride], under setting [1], the “PPB (fb)” value was 0.95.

On to `Clc1ccc2c(c1)C(N1CCNCC1)=Nc1ccccc1O2` [amoxapine], for which the “PPB (fb)” value under setting [2] was 0.9.

Take `C=CCC1(C(C)C#CCC)C(=O)N=C(O)N(C)C1=O` (stereo not shown) [Methohexital]: the “PPB (fb)” value (plasma) is reported as 0.75.

Turning to `N=C(N)NC(=O)c1nc(Cl)c(N)nc1N` [amiloride], the “PPB (fb)” value under setting [2] is recorded as 0.4.

`O=C(O)c1ccccc1Nc1cccc(C(F)(F)F)c1` [flufenamic acid]: the “PPB (fb)” value under setting [1] was 0.9.

With `O=C1NCCN1c1ncc([N+](=O)[O-])s1` [niridazole], the “PPB (fb)” value under setting [2] was 0.85.

Consider `O=C(OCC(O)CO)c1ccccc1Nc1ccnc2c(C(F)(F)F)cccc12` (stereo not shown) [floctafenine], for which the “PPB (fb)” value under setting [1] is recorded as 0.85.

Turning to `CN(C)C(=O)Oc1cc(OC(=O)N(C)C)cc(C(O)CNC(C)(C)C)c1` (stereo not shown) [bambuterol], the “PPB (fb)” value under setting [2] is 0.45.

As to `OC(CNCC(O)C1CCc2cc(F)ccc2O1)C1CCc2cc(F)ccc2O1` (stereo not shown) [nebivolol], the “PPB (fb)” value under setting [2] is 0.98.

As to `O=C(O)[C@H]1/C(=C/CO)O[C@@H]2CC(=O)N21` [Clavulanic Acid], the “PPB (fb)” value under setting [3] is given as 0.09.

For `CCN(CC)C(=O)C1(c2ccccc2)CC1CN` (stereo not shown) [milnacipran], the “PPB (fb)” value under setting [2] is reported as 0.13.

Turning to `CN1C(C(=O)Nc2ccccn2)=C(O)c2sccc2S1(=O)=O` [Tenoxicam], under setting [2], the “PPB (fb)” value is reported as 0.99.

On to `NCC1OC(OC2C(CO)OC(OC3C(O)C(N)CC(N)C3OC3OC(CN)C(O)C(O)C3N)C2O)C(N)C(O)C1O` (stereo not shown) [neomycin], for which the “PPB (fb)” value under setting [1] is reported as 0.2.

On to `CCc1nc(N)nc(N)c1-c1ccc(Cl)cc1` [Pyrimethamine], for which the “PPB (fb)” value under setting [3] was 0.89.

As for `Clc1ccc(COC(Cn2ccnc2)c2ccc(Cl)cc2Cl)c(Cl)c1` (stereo not shown) [miconazole], the “PPB (fb)” value under setting [2] is on record as 0.95.

Turning to `COc1ccc2c(c1)c(CC(=O)OCC(=O)O)c(C)n2C(=O)c1ccc(Cl)cc1` [acemetacin], the “PPB (fb)” value under setting [2] is reported as 0.9.

`Cc1ncc([N+](=O)[O-])n1CCO` [Metronidazole]: the “PPB (fb)” value under setting [2] is 0.07.

On to `CC(C)c1cccc(C(C)C)c1O` [Propofol], for which the “PPB (fb)” value (plasma) is 0.98.

With `COc1ccc2c3c1O[C@H]1C(=O)CC[C@@]4(O)[C@@H](C2)N(C)CC[C@]314` [Oxycodone], the “PPB (fb)” value (plasma) is 0.45.

With `CCCSc1ccc2nc(NC(=O)OC)[nH]c2c1` [albendazole], the “PPB (fb)” value under setting [2] is on record as 0.7.

Regarding `CC(NCCC(c1ccccc1)c1ccccc1)c1ccccc1` (stereo not shown) [fendiline], the “PPB (fb)” value under setting [1] is given as 0.95.

For the compound `Cc1ccc2ccccc2c1C(=O)NC1C(=O)N2C1SC(C)(C)C2C(=O)O` (stereo not shown) [penicillin66], the “PPB (fb)” value under setting [1] was 0.82.

Turning to `Nc1c2c(nc3ccccc13)CCCC2` [Tacrine], the “PPB (fb)” value (plasma) is given as 0.65.

With `CN(C)CCCN1c2ccccc2CCc2cc(O)ccc21` [Hydroxyimipramine__ 2-], under setting [3], the “PPB (fb)” value is listed as 0.64.

With `C[C@@H](c1ncncc1F)[C@](O)(Cn1cncn1)c1ccc(F)cc1F` [Voriconazole], the “PPB (fb)” value under setting [1] is on record as 0.58.

For `C[C@@H](O)[C@H]1C(=O)N2C(C(=O)O)=C(S[C@H]3C[C@@H](C(=O)N4CC[C@H](NC(=O)CNC(=N)N)C4)N(C)C3)[C@H](C)[C@H]12` [Tomopenem], under setting [2], the “PPB (fb)” value is given as 0.09.

In the case of `CC1(C)S[C@@H]2[C@H](NC(=O)[C@H](N)c3ccccc3)C(=O)N2[C@H]1C(=O)O` [Ampicillin], the “PPB (fb)” value (plasma) is 0.16.

As to `CCCN1CCCC[C@H]1C(=O)Nc1c(C)cccc1C` [Ropivacaine], the “PPB (fb)” value under setting [1] is 0.94.

With `CC(=O)CCCCn1c(=O)c2c(ncn2C)n(C)c1=O` [pentoxifylline], the “PPB (fb)” value under setting [1] was 0.

For `CCCCCNC(=N)N/N=C/c1c[nH]c2ccc(OC)cc12` [Tegaserod], the “PPB (fb)” value under setting [1] was 0.98.

Take `CN1CC[C@]23CCCC[C@H]2[C@H]1Cc1ccc(O)cc13` [levorphanol]: the “PPB (fb)” value (plasma) is 0.4.

Turning to `Cc1cccc(C)c1NC(=O)c1cc(S(N)(=O)=O)c(Cl)cc1O` [xipamide], under setting [3], the “PPB (fb)” value is listed as 0.99.

Turning to `COCC(=O)NC1C(=O)N2C1SC(C)(C)C2C(=O)O` (stereo not shown) [penicillin5], the “PPB (fb)” value under setting [1] is given as 0.07.

With `CC/C=C/C/C=C/C/C=C/C/C=C/C=C/C(O)CCCC(=O)O` (stereo not shown) [hepe], the “PPB (fb)” value under setting [1] is recorded as 0.99.

Turning to `Cc1nc2ccc(CN(C)c3ccc(C(=O)N[C@@H](CCC(=O)O)C(=O)O)s3)cc2c(=O)[nH]1` [raltitrexed], under setting [1], the “PPB (fb)” value is recorded as 0.93.

For the compound `CNC[C@H](O)c1ccc(O)c(O)c1` [epinephrine], the “PPB (fb)” value under setting [1] is on record as 0.5.

`COc1cccc(C2(O)CCCCC2CN(C)C)c1` (stereo not shown) [Tramadol]: the “PPB (fb)” value (plasma) is listed as 0.16.

As for `Cc1nc2c([nH]1)-c1ccccc1N(C(=O)c1ccc(NC(=O)c3ccccc3-c3ccccc3)cc1)CC2` [Conivaptan], under setting [3], the “PPB (fb)” value is 0.99.

On to `Cn1cc(NC(=O)c2cc(NC(=O)c3cc(NC(=O)c4nsc(Cl)c4Cl)cn3C)cn2C)cc1C(=O)NCCC(=N)N` [GSQ1530], for which, under setting [1], the “PPB (fb)” value is given as 0.89.

As to `N[C@@H]1CN(c2c(F)cc3c(=O)c(C(=O)O)cn([C@@H]4C[C@@H]4F)c3c2Cl)CC12CC2` [Sitafloxacin], the “PPB (fb)” value under setting [2] is listed as 0.49.

Take `O=C(O)c1cc(-c2ccc(F)cc2F)ccc1O` [Diflunisal]: under setting [3], the “PPB (fb)” value was 0.99.

For the compound `CCCN(CCC)S(=O)(=O)c1ccc(C(=O)O)cc1` [Probenecid], the “PPB (fb)” value under setting [2] is recorded as 0.88.
